Assay [1] concerns the target T1, HIV-1 protease (Human immunodeficiency virus type 1 group M subtype B, UniProt P04585). Briefly: biochemical. Particulars: for inhibition at 0.123 µM: read-out: HIV-1 Protease % Inhib, dose 0.123 uM; for inhibition at 0.37 µM: read-out: HIV-1 Protease % Inhib, dose 0.370 uM; for inhibition at 1.1 µM: read-out: HIV-1 Protease % Inhib, dose 1.100 uM; for inhibition at 3.3 µM: read-out: HIV-1 Protease % Inhib, dose 3.300 uM; for inhibition at 10 µM: read-out: HIV-1 Protease % Inhib, dose 10.000 uM; for inhibition at 30 µM: read-out: HIV-1 Protease % Inhib, dose 30.000 uM; for inhibition at 0.41 µM: read-out: HIV-1 Protease % Inhib, dose 0.410 uM; for inhibition at 1.23 µM: read-out: HIV-1 Protease % Inhib, dose 1.230 uM; for inhibition at 3.7 µM: read-out: HIV-1 Protease % Inhib, dose 3.700 uM; for inhibition at 11 µM: read-out: HIV-1 Protease % Inhib, dose 11.000 uM; for inhibition at 33 µM: read-out: HIV-1 Protease % Inhib, dose 33.000 uM; for inhibition at 100 µM: read-out: HIV-1 Protease % Inhib, dose 100.000 uM; for inhibition at 1 µM: read-out: HIV-1 Protease % Inhib, dose 1.000 uM. In short, it runs like this: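 Percent inhibition derived from fluorescent cleavage product separated by filtration after streptavidin-bead capture of intact biotin/FITC substrate. Reaction: enzyme (10 μl, 0.1 μM stock) with substrate (20 μl, 0.2 μM stock) and compound, 1 h at room temperature in dark, pH 5.5 acetate buffer with 1.0 M NaCl and 0.05% NP-40.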

In assay [2] the target is T1, HIV-1 protease. The assay is described as follows: biochemical. In short, it runs like this: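 Enzyme (40 nM stock) and substrate (200 μM stock) incubated with inhibitor, 24–48 two-fold serial concentrations, for 90 min at room temperature, then quenched with avidin beads. Nonlinear least-squares analysis gives Ki; a known-Ki inhibitor validates each run.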

As usually defined, the pKi is the Ki on a negative log10 scale, so that one unit is a factor of ten.

pKi: −log10 of the molar value. “And” between values parts separate entries of the source, which are not always exact repeats. Equal entries are not always repeated. Where two headings read alike, the source gives them in different places.

In the case of `O=C(CCn1ccc2ccccc21)Nc1cccc(C(c2c(O)c3c(oc2=O)CCCCCC3)C2CC2)c1` (stereo not drawn) [Example 197, 1H-Indole-1-propanamide, N-[3-[cyclopropyl(5,6,7,8,9,10-hexahydro-4-hydroxy-2-oxo-2H-cycloocta[b]pyran-3-yl)methyl]phenyl]-], at HIV-1 protease [1], the inhibition at 0.123 µM was 34%, the inhibition at 0.37 µM amounted to 65.6%, the inhibition at 1.1 µM came out at 76.6% and the inhibition at 3.3 µM was 88.7%. At HIV-1 protease [1], the inhibition at 10 µM is 91.8% and the inhibition at 30 µM was determined as 89.6%. Also, on HIV-1 protease [2] (read-out: HIV-1 FITC KI), the pKi was 7.85.

Take `O=c1oc2c(c(O)c1C(c1cccs1)C1CC1)CCCCCC2` (stereo not drawn) [Example 379, 3-(α-Cyclopropylthien-2-ylmethyl)-4-hydroxy-5,6,7,8,9,10-hexahydrocycloocta[b]pyran-2-one]: at HIV-1 protease [1], the inhibition at 0.37 µM is 48.6%, the inhibition at 1.1 µM was found to be 84.5%, the inhibition at 3.3 µM amounted to 96.2% and the inhibition at 10 µM came to 107%. Further, at HIV-1 protease [1], the inhibition at 30 µM stood at 113%. Also, the pKi at HIV-1 protease [2] (read-out: HIV-1 FITC KI) was 7.74.

Regarding `COc1ccc2c(O)c(C(c3cccc(NC(=O)CCNC(=O)OC(C)(C)C)c3)C3CC3)c(=O)oc2c1` (stereo not drawn) [Example 167, Carbamic acid, [3-[[3-[cyclopropyl(4-hydroxy-7-methoxy-2-oxo-2H-1-benzopyran-3-yl)methyl]phenyl]amino]-3-oxopropyl]-, 1,1-dimethylethyl ester], at HIV-1 protease [1], the inhibition at 0.41 µM was determined as 83.2%, the inhibition at 1.23 µM was 99.5%, the inhibition at 3.7 µM was 113% and the inhibition at 11 µM was determined as 114%. Further, on HIV-1 protease [1], the inhibition at 33 µM is 114% and the inhibition at 100 µM came to 116%. On HIV-1 protease [2] (HIV-1 FITC KI), the pKi was 7.55.

Regarding `CC(C)C(c1cccc(NS(=O)(=O)c2cn(C)cn2)c1)c1c(O)c2c(oc1=O)CCCCCC2` (stereo not drawn) [Example 374, N-[3-[1-(5,6,7,8,9,10-Hexahydro-4-hydroxy-2-oxo-2H-cycloocta[b]pyran-3-yl)-2-methylpropyl]phenyl]-1-methyl-1H-imidazole4-sulfonamide], at HIV-1 protease [1], the inhibition at 0.123 µM was 121%, the inhibition at 0.37 µM was 121%, the inhibition at 1.1 µM was determined as 131% and the inhibition at 3.3 µM amounted to 125%. For the same compound, at HIV-1 protease [1], the inhibition at 10 µM is 129% and the inhibition at 30 µM was found to be 128%. The pKi on HIV-1 protease [2] (read-out: HIV-1 FITC KI) is 8.89 and 9.14.

Take `O=c1oc2c(c(O)c1C(c1cccc(NS(=O)(=O)c3ccc(S(=O)(=O)c4ccccc4)s3)c1)C1CC1)CCCCCC2` (stereo not drawn) [Example 299, N-[3-[Cyclopropyl(5,6,7,8,9,10-hexahydro-4-hydroxy-2-oxo-2H-cycloocta[b]pyran-3-yl)methyl]phenyl]-5-(phenylsulfonyl)-2-thiophenesulfonamide]: at HIV-1 protease [1], the inhibition at 0.123 µM was 78.5%, the inhibition at 0.37 µM amounted to 97.8%, the inhibition at 1.1 µM was 97.5% and the inhibition at 3.3 µM was 91.7%. Besides, at HIV-1 protease [1], the inhibition at 10 µM turned out to be 104% and the inhibition at 30 µM is 98.4%. Moreover, the pKi on HIV-1 protease [2] (read-out: HIV-1 FITC KI) was 8.64.

Turning to `CCC(c1cccc(NS(=O)(=O)CC)c1)c1c(O)c2ccccc2oc1=O` (stereo not drawn) [Example 138, Ethanesulfonic acid (3-(1-(4-hydroxy-2-oxo-2H-chromen-3-yl)-propyl)-phenyl)-amide], at HIV-1 protease [1], the inhibition at 1 µM is 11.9%, the inhibition at 10 µM was determined as 64.5% and the inhibition at 100 µM was determined as 99.3%. The compound further showed a negative-log Ki (pKi) on HIV-1 protease [2] (HIV-1 FITC KI) of 5.63.

With `O=C(Nc1cccc(S(=O)(=O)Nc2cccc(C(c3c(O)c4c(oc3=O)CCCCCC4)C3CC3)c2)c1)c1ccccc1` (stereo not drawn) [Example 351, N-[3-[[[3-[Cyclopropyl(5,6,7,8,9,10-hexahydro4-hydroxy-2-oxo-2H-cycloocta[b]pyran-3-yl)methyl]phenyl]amino]sulfonyl]phenyl]-benzamide], on HIV-1 protease [1], the inhibition at 0.123 µM stood at 11.2%, the inhibition at 0.37 µM came to 49.3%, the inhibition at 1.1 µM came out at 76.6% and the inhibition at 3.3 µM came to 93.9%. Further, on HIV-1 protease [1], the inhibition at 10 µM was 97.8% and the inhibition at 30 µM was 95.8%. In addition, the pKi on HIV-1 protease [2] (read-out: HIV-1 FITC KI) was 7.79.

Regarding `CCCC(c1cccc(NS(=O)(=O)c2ccc(Cl)cc2)c1)c1c(O)c2c(oc1=O)CCCCCC2` (stereo not drawn) [Example 377, Benzenesulfonamide, 4-chloro-N-[3-[1-(5,6,7,8,9,10-hexahydro-4-hydroxy-2-oxo-2H-cycloocta[b]pyran-3-yl)butyl]phenyl]-], the “HIV-1 Protease % Inhib” value at HIV-1 protease [1] (dose 3.300 uM) was 66.07% and 114.03%; at HIV-1 protease [1] (dose 10.000 uM), 83.74% and 107.37%; on HIV-1 protease [1] (dose 30.000 uM), 101.29%. Besides, the inhibition at 0.123 µM at HIV-1 protease [1] was 92.9%. Moreover, the inhibition at 30 µM at HIV-1 protease [1] is 94.7%. Moreover, on HIV-1 protease [2] (read-out: HIV-1 FITC KI), the pKi is 8.40.

Regarding `O=c1oc2c(c(O)c1C(c1ccc(CCO)s1)C1CC1)CCCCCC2` (stereo not drawn) [Example 385], at HIV-1 protease [1], the inhibition at 0.37 µM stood at 48.5%, the inhibition at 1.1 µM was 89.5%, the inhibition at 3.3 µM is 104% and the inhibition at 10 µM stood at 107%. Further, on HIV-1 protease [1], the inhibition at 30 µM turned out to be 107%. In addition, the pKi at HIV-1 protease [2] (read-out: HIV-1 FITC KI) was 7.91.

As for `O=c1oc2c(c(O)c1C(c1cccc(NS(=O)(=O)c3ccc(NS(=O)(=O)c4ccccc4)cc3)c1)C1CC1)CCCCCC2` (stereo not drawn) [Example 349, N-[3-[Cyclopropyl(5,6,7,8,9,10-hexahydro-4-hydroxy-2-oxo-2H-cycloocta[b]pyran-3-yl)methyl]phenyl]4-[(phenylsulfonyl)amino]-benzenesulfonamide], on HIV-1 protease [1], the inhibition at 0.37 µM is 38.4%, the inhibition at 1.1 µM was found to be 69%, the inhibition at 3.3 µM is 86.4% and the inhibition at 10 µM is 96.7%. Besides, the inhibition at 30 µM at HIV-1 protease [1] is 88.5%. On HIV-1 protease [2] (read-out: HIV-1 FITC KI), the pKi was 7.47.

Turning to `CC(C)(C)OC(=O)NCCC(=O)Nc1cccc(C(c2c(O)c3ccccc3oc2=O)C2CC2)c1` (stereo not drawn) [Example 165, Carbamic acid, [3-[[3-[cyclopropyl(4-hydroxy-2-oxo-2H-1-benzopyran-3-yl)methyl]phenyl]amino]-3-oxopropyl]-, 1,1-dimethylethyl ester], at HIV-1 protease [1], the inhibition at 0.41 µM worked out at 61.7%, the inhibition at 1.23 µM turned out to be 86.7%, the inhibition at 3.7 µM stood at 98.4% and the inhibition at 11 µM amounted to 106%. In addition, on HIV-1 protease [1], the inhibition at 33 µM was 111% and the inhibition at 100 µM amounted to 114%. Besides, the pKi at HIV-1 protease [2] (HIV-1 FITC KI) is 7.07.

For the compound `O=c1oc2c(c(O)c1C(c1ccccc1)C1CC1)CCCC2` (stereo not drawn) [Example 115, 3-(Cyclopropylphenylmethyl)-5,6,7,8-tetraphydro-4-hydroxy-2H-1-benzopyran-2-one], on HIV-1 protease [1], the inhibition at 1 µM came to 62.1%, the inhibition at 10 µM came to 102% and the inhibition at 100 µM came to 129%. Also, at HIV-1 protease [2] (read-out: HIV-1 FITC KI), the pKi was 6.75.

Consider `CCC(O)C1CCCCCc2c1oc(=O)c(C(c1ccccc1)C1CC1)c2O` (stereo not drawn) [Example 134, 3-(Cyclopropyl-phenyl-methyl)-4-hydroxy-10-(1-hydroxy-propyl)-5,6,7,8,9,10-hexahydro-cycloocta[b]pyran-2-one], for which, at HIV-1 protease [1], the inhibition at 0.123 µM turned out to be 54%, the inhibition at 0.37 µM is 97.7%, the inhibition at 1.1 µM was found to be 104% and the inhibition at 3.3 µM turned out to be 111%. Besides, at HIV-1 protease [1], the inhibition at 10 µM is 111% and the inhibition at 30 µM is 109%. Further, the pKi on HIV-1 protease [2] (read-out: HIV-1 FITC KI) is 7.82.

Source of the values: US5686486A, “4-hydroxy-benzopyran-2-ones and 4-hydroxy-cycloalkyl[b]pyran-2-ones useful to treat retroviral infections” (priority 1995, dated 1997).
